Source: publication PMC11749085, “Paeoniflorin relieves arterial stiffness induced by a high-fat/high-sugar diet by disrupting the YAP-PPM1B interaction” (Life Medicine, 2023)

Columns and labels:
[1] = target: T1, LgBiT-YAP-CC / SmBiT-PPM1B (Homo sapiens, UniProt P46937); assay: NanoBiT split-luciferase protein-protein interaction assay in HeLa cells; type: cell-based
T1 construct: gene YAP1; with Protein phosphatase 1B

YAP-CC domain = target: T2, YAP-CC domain (Homo sapiens, UniProt P46937); assay: biolayer interferometry; type: binding; conditions: read-out: affinity
T2 construct: gene YAP1
From the text: biolayer interferometry on YAP-CC domain | a binding between paeoniflorin and the YAP-CC domain with an affinity of […]

T2 sequence (P46937 298-328): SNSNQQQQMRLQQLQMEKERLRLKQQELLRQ
T1 sequence (P46937 298-328): as above
T1 sequence (O75688 2-479 partner): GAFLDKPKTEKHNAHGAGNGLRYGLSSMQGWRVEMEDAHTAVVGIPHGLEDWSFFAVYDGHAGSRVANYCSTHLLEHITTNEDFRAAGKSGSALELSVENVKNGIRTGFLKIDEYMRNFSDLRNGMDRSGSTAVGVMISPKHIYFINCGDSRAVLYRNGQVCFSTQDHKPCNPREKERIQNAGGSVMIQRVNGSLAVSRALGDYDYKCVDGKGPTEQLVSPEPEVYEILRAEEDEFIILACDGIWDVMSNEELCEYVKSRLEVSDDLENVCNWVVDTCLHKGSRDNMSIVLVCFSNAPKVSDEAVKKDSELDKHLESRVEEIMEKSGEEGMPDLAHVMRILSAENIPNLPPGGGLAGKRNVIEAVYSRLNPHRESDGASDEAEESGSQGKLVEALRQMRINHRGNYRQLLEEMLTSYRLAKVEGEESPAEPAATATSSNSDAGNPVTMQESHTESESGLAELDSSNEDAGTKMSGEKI

- IC50 [1]: 4.8 µM
- Kd (YAP-CC domain): 40.5 µM
Structure (SMILES): C[C@@]12C[C@@]3(O)O[C@@H](O1)[C@]1(COC(=O)c4ccccc4)[C@H]3C[C@@]12O[C@@H]1O[C@H](CO)[C@@H](O)[C@H](O)[C@H]1O [paeoniflorin]
